Reference: patent US11512085B2, “Heteroaryl compound having drug activity” (SHANGHAI DUDE MEDICAL TECHNOLOGY CO., LTD, priority 2017, dated 2022)
pIC50: −log10 of the molar value. Where two headings read alike, the source gives them in different places.

Legend:
[1] = target: Btk (Homo sapiens, UniProt Q06187); assay: Determination of Btk enzyme inhibitory activity; format: biochemical; conditions: 2 nM BTK
Method: Determination of Btk Enzyme Inhibitory Activity
Buffer solution: 50 mM Hepes pH 7.0, 0.1 mM Orthovanadate, 5 mM MgCl2, 0.01% of BSA;
1 mM TK-peptide, […], 50 nM SEB;
Pre-incubation for 15 minutes;
Reaction at 23° C. for 90 minutes;
Color Development Reaction:
Developing buffer solution: 50 mM Hepes pH8.0, 0.8 M KF, 20 mM EDTA, 0.01% BSA;
Reaction at 23° C. for 60 minutes;

[2] = tested on: SD rats; assay: Single dose toxicity test in SD rats; format: in vivo
Method: Biological Embodiment 6: Single Dose Toxicity Test
During the experiment, all the animals were subjected to detailed clinical observation once (2 hours after drug administration) on the Day 1 and once every day on Day 2-14; the animals were weighed on the day of animal grouping, on the day of drug administration (before drug administration), Day 4, 7, 10 and 13 after drug administration and on the day of dissection, and weights were recorded; food consumption per cage was weighed within 24 hours on Day 2, 6, 9 and 13 in the experiment and recorded; and all live animals were subjected to gross anatomy examination on Day 15.
1. Preparation of Test and Control Products
a solvent control group: 30 ml of solvents (0.5% MC (methylcellulose), 0.4% of cremophor EL and 0.1% of sodium lauryl sulfate) were sucked into a suitable container, the pH value was measured as 7, and a colorless clarified solution was obtained.
(§1) Compound 6 (400 mg/kg): 1507.1 mg of the compound 6 was weighed into a suitable container, solvents (0.5% MC (methylcellulose), 0.4% cremophor EL and 0.1% sodium lauryl sulfate) were added into the container to reach a constant volume of 30 ml, ultrasonic treatment was performed for 20 minutes, stirring was performed for 15 minutes, a mixing instrument was used for 5 minutes, the pH value was measured as 7, and white suspension was obtained.
as §1, with “(1000” for “(400”, “3765.5” for “1507.1”, “25” for “20”, “21” for “15”, “obtained. […]” for “obtained.”

[3] = Pharmacokinetic study, single intravenous and oral dose, SD rats; format: in vivo; conditions: male, blood; for AUC(0-t) / Cmax / Tmax / half-life: Rat; for half-life: read-out: T½ (converted)
Method: Biological Embodiment 7: Pharmacokinetic Study of Performing Respective Single Intravenous and Oral Dose Delivery with Test Samples on SD Rats and Beagle Dogs
6 male SD rats were selected, and grouped and administered according to an experimental design table; 3 animals in the first group were intravenously administered once on the day of administration, wherein the administration dosage was 2 mg/kg, and the administration volume was 5 mL/kg; 3 animals in the second group were orally intragastrically administered once on the day of administration, wherein the administration dosage was 10 mg/kg, and the administration volume was 10 mL/kg.
All the animals were subjected to cage edge observation twice every day so as to determine whether the animals got ill or had injuries or death and other situations and whether supply of foods and water was sufficient. In the test process, all administered animals were subjected to detailed clinical observation before administration and at blood collection points.
Before administration (0 h) and within 0.083 h, 0.25 h, 0.5 h, 1 h, 2 h, 4 h, 6 h, 8 h and 24 h after administration, blood samples were collected from femoral veins at 10 time points so as to be used for blood concentration test.

[4] = tested on: DOHH-2; assay: In vitro tumor cell proliferation (CellTiter-Glo), DOHH-2; format: cell-based; conditions: Homo sapiens, DOHH-2, 72 h; read-out: Growth IC50
Method: (§2) Biological Embodiment 8: Study on Effects of Active Compounds for Inhibiting In Vitro Tumor Cell Proliferation
(§3) Promega CellTiter-Glo cell activity detection kit by luminescence (Promega-G7573).
(§4) Tumor cell lines were cultured in a 5% of CO2 incubator at 37° C. according to respective culture conditions; and periodic passage was performed, and cells positioned in a logarithmic phase were taken for planking.
(§5) 3) 90 μL of cell suspension was added into each well of the culture plate, and a culture solution containing no cell was added into blank control;
(§6) 4) the culture plate was cultured overnight in the 5% of CO2 incubator having relative humidity of 100% at 37° C.
(§7) Preparation of a 400× compound storage plate: the compound was diluted from the maximum concentration gradient to the lowest concentration with DMSO. […]
(§8) The following steps were performed according to the specification of the Promega CellTiter-Glo cell activity detection kit by luminescence (Promega-G7573). […]
(§9) 9) the luminescence signal was detected on the 2104 EnVision plate reader.

[5] = tested on: OCI-LY10; assay: In vitro tumor cell proliferation (CellTiter-Glo), OCI-LY10; format: cell-based; conditions: Homo sapiens, OCI-Ly10, 72 h; read-out: Growth IC50
Method: as §2, §3, §4, §5, §6, §7, §8, §9

[6] = tested on: SU-DHL-4; assay: In vitro tumor cell proliferation (CellTiter-Glo), SU-DHL-4; format: cell-based; conditions: Homo sapiens, SU-DHL-4, 72 h; read-out: Growth IC50
Method: as §2, §3, §4, §5, §6, §7, §8, §9

[7] = tested on: Mino; assay: In vitro tumor cell proliferation (CellTiter-Glo), Mino; format: cell-based; conditions: Homo sapiens, 72 h, read-out: Growth IC50
Method: as §2, §3, §4, §5, §6, §7, §8, §9

Btk, sequence (Q06187 whole entry): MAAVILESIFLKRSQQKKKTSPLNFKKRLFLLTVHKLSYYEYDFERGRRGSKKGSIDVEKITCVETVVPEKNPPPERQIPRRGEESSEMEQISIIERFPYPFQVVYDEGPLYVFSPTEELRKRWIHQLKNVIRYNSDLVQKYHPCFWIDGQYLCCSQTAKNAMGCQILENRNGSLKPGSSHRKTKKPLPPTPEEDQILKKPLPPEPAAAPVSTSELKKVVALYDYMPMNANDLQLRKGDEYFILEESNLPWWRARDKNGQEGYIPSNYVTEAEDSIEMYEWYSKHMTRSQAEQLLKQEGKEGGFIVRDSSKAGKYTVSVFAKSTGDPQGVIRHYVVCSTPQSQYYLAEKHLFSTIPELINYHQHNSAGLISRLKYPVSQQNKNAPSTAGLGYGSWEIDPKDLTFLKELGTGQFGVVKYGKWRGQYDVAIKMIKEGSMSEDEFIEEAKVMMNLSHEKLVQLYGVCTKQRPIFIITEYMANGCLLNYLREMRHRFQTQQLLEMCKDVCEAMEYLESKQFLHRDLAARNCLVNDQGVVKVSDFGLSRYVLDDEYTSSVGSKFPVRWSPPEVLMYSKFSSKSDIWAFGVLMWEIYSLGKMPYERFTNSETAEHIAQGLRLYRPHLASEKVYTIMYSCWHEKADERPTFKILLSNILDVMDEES

Structure (SMILES): C=CC(=O)NN1CCCC(n2nc(-c3ccc(Oc4ccccc4)cc3)c3c(N)ncnc32)C1 (centres unmarked) [Embodiment 6, N-(3-(4-amino-3-(4-phenoxyphenyl)-1H-pyrazolo[3,4-D]pyrimidine-1-yl)-1-piperidyl)-acrylamide]
- pIC50 [1]: 9.57
- Maximum tolerance dosage ([2]; SD rats, oral, once, 0, 400, 1000, 2000 mg/kg): 2000 mg/kg
- Gross anatomy ([2]; rat, in vivo): no abnormality
- Results (single dose toxicity) ([2]; rat, in vivo): No animal died; all tissues
- AUC(0-t) ([3]; IV, 2 mg/kg): 271 ng·h/mL
- Cmax ([3]; IV, 2 mg/kg): 658 ng/mL
- Tmax ([3]; IV, 2 mg/kg): 4.98 min
- half-life ([3]; IV, 2 mg/kg): 10.8 min
- AUC(0-t) ([3]; PO, 10 mg/kg): 449 ng·h/mL
- Cmax ([3]; PO, 10 mg/kg): 447 ng/mL
- Tmax ([3]; PO, 10 mg/kg): 25.2 min
- half-life ([3]; PO, 10 mg/kg): 113 min
- bioavailability ([3]; rat, oral, 10 mg/kg): 32.2%
- pIC50 [4]: > 8.52
- pIC50 [5]: 8.22
- pIC50 [6]: 7.12
- pIC50 [7]: 5.66
